According to ChEMBL document CHEMBL1201862, “PubChem BioAssay data set” (2004):
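48-hour exposure; five concentrations; linearly interpolated endpoints. Here, GI50 denotes the concentration required for 50% inhibition of growth.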 The source made the active and inactive calls. Cut-off read from the data, not from the text of the source: active = GI50 up to about 1.1 µM and inactive = higher.

Columns and labels:
Test in all cases: growth of human tumour cells (NCI), 48 h
[1] = tested on: HT-29
[2] = tested on: K562
[3] = tested on: A498
[4] = tested on: ACHN
[5] = tested on: MDA-N
[6] = tested on: RPMI-8226
[7] = tested on: OVCAR-5
[8] = tested on: Malme-3M
[9] = tested on: DU-145
[10] = tested on: HCT-116
[11] = tested on: CCRF-CEM
[12] = tested on: KM12
[13] = tested on: SF-539
[14] = tested on: CAKI-1
[15] = tested on: OVCAR-8
[16] = tested on: SF-295
[17] = tested on: SR
[18] = tested on: HL-60
[19] = tested on: MCF7
[20] = tested on: HCT-15
[21] = tested on: OVCAR-4
[22] = tested on: SK-MEL-28
[23] = tested on: BT-549
[24] = tested on: IGROV-1
[25] = tested on: UACC-62
[26] = tested on: NCI-H226
[27] = tested on: NCI/ADR-RES
[28] = tested on: PC-3
[29] = tested on: MOLT-4
[30] = tested on: SN12C
[31] = tested on: HOP-62
[32] = tested on: HOP-92
[33] = tested on: SW-620
[34] = tested on: NCI-H23
[35] = tested on: MDA-MB-231
[36] = tested on: NCI-H522
[37] = tested on: A549
[38] = tested on: T47D
[39] = tested on: HCC 2998
[40] = tested on: LOX IMVI
[41] = tested on: SK-MEL-5
[42] = tested on: UO-31
[43] = tested on: Hs-578T
[44] = tested on: SK-MEL-2
[45] = tested on: UACC-257
[46] = tested on: TK-10
[47] = tested on: RXF 393
[48] = tested on: EKVX
[49] = tested on: SNB-75
[50] = tested on: 786-0
[51] = tested on: COLO 205
[52] = tested on: SK-OV-3
[53] = tested on: SNB-19
[54] = tested on: NCI-H460
[55] = tested on: OVCAR-3
[56] = tested on: MDA-MB-435
[57] = tested on: M14
[58] = tested on: U-251
[59] = tested on: SF-268

SMILES: COc1ccc(/C=N/n2c(-c3ccccc3)n[nH]c2=O)c(OC)c1
- GI50 [1]: 26.6 µM (inactive)
- GI50 [2]: > 100 µM (inactive)
- GI50 [3]: 31.6 µM (inactive)
- GI50 [4]: 29 µM (inactive)
- GI50 [5]: > 100 µM (inactive)
- GI50 [6]: > 100 µM (inactive)
- GI50 [7]: > 92.9 µM (inactive)
- GI50 [8]: > 100 µM (inactive)
- GI50 [9]: > 100 µM (inactive)
- GI50 [10]: 54.5 µM (inactive)
- GI50 [11]: > 100 µM (inactive)
- GI50 [12]: 45.8 µM (inactive)
- GI50 [13]: 28.4 µM (inactive)
- GI50 [14]: 41.2 µM (inactive)
- GI50 [15]: 29.9 µM (inactive)
- GI50 [16]: 32.7 µM (inactive)
- GI50 [17]: > 100 µM (inactive)
- GI50 [18]: > 100 µM (inactive)
- GI50 [19]: 49.4 µM (inactive)
- GI50 [20]: > 100 µM
- GI50 [21]: 27 µM (inactive)
- GI50 [22]: > 100 µM (inactive)
- GI50 [23]: 4.41 µM (inactive)
- GI50 [24]: 36.9 µM (inactive)
- GI50 [25]: 43.9 µM (inactive)
- GI50 [26]: 51.1 µM (inactive)
- GI50 [27]: 29.2 µM (inactive)
- GI50 [28]: 50.1 µM (inactive)
- GI50 [29]: > 100 µM (inactive)
- GI50 [30]: 44 µM (inactive)
- GI50 [31]: 29.8 µM (inactive)
- GI50 [32]: 36.5 µM (inactive)
- GI50 [33]: > 100 µM (inactive)
- GI50 [34]: 39.4 µM (inactive)
- GI50 [35]: 51.5 µM (inactive)
- GI50 [36]: > 52.2 µM (inactive)
- GI50 [37]: 36.7 µM (inactive)
- GI50 [38]: 50 µM (inactive)
- GI50 [39]: > 100 µM (inactive)
- GI50 [40]: 47.4 µM (inactive)
- GI50 [41]: > 68.9 µM (inactive)
- GI50 [42]: 24.4 µM (inactive)
- GI50 [43]: 37.2 µM (inactive)
- GI50 [44]: 48.2 µM (inactive)
- GI50 [45]: > 100 µM (inactive)
- GI50 [46]: 27 µM (inactive)
- GI50 [47]: 29.3 µM (inactive)
- GI50 [48]: 38.5 µM (inactive)
- GI50 [49]: 27 µM (inactive)
- GI50 [50]: 30.5 µM (inactive)
- GI50 [51]: > 100 µM (inactive)
- GI50 [52]: 31.8 µM (inactive)
- GI50 [53]: 1.13 µM (inactive)
- GI50 [54]: 51.1 µM (inactive)
- GI50 [55]: 79.6 µM (inactive)
- GI50 [56]: > 100 µM (inactive)
- GI50 [57]: 98.2 µM (inactive)
- GI50 [58]: 40.6 µM (inactive)
- GI50 [59]: 22.3 µM (inactive)

SMILES: CC(=O)OCC1OC(n2c(S)nc(-c3ccccc3)c(C#N)c2=O)C(OC(C)=O)C(OC(C)=O)C1OC(C)=O (configuration not stated)
- GI50 [1]: > 100 µM (inactive)
- GI50 [2]: > 100 µM (inactive)
- GI50 [3]: > 100 µM (inactive)
- GI50 [4]: > 100 µM (inactive)
- GI50 [5]: > 100 µM (inactive)
- GI50 [6]: > 100 µM (inactive)
- GI50 [7]: > 100 µM (inactive)
- GI50 [8]: > 100 µM (inactive)
- GI50 [9]: > 100 µM (inactive)
- GI50 [10]: > 100 µM (inactive)
- GI50 [11]: > 100 µM (inactive)
- GI50 [12]: > 100 µM (inactive)
- GI50 [13]: > 100 µM (inactive)
- GI50 [14]: > 100 µM (inactive)
- GI50 [15]: > 100 µM (inactive)
- GI50 [16]: > 100 µM (inactive)
- GI50 [17]: > 100 µM (inactive)
- GI50 [18]: > 100 µM (inactive)
- GI50 [19]: > 100 µM (inactive)
- GI50 [20]: > 100 µM
- GI50 [21]: > 100 µM (inactive)
- GI50 [22]: > 100 µM (inactive)
- GI50 [23]: > 100 µM (inactive)
- GI50 [24]: > 100 µM (inactive)
- GI50 [25]: > 100 µM (inactive)
- GI50 [26]: > 100 µM (inactive)
- GI50 [27]: > 100 µM (inactive)
- GI50 [28]: > 100 µM (inactive)
- GI50 [29]: > 100 µM (inactive)
- GI50 [30]: > 100 µM (inactive)
- GI50 [31]: > 100 µM (inactive)
- GI50 [32]: > 100 µM (inactive)
- GI50 [33]: > 100 µM (inactive)
- GI50 [34]: > 100 µM (inactive)
- GI50 [35]: > 100 µM (inactive)
- GI50 [36]: > 100 µM (inactive)
- GI50 [37]: > 100 µM (inactive)
- GI50 [38]: > 100 µM (inactive)
- GI50 [39]: > 100 µM (inactive)
- GI50 [40]: > 100 µM (inactive)
- GI50 [41]: > 100 µM (inactive)
- GI50 [42]: > 100 µM (inactive)
- GI50 [43]: > 100 µM (inactive)
- GI50 [44]: > 100 µM (inactive)
- GI50 [45]: > 100 µM (inactive)
- GI50 [46]: > 100 µM (inactive)
- GI50 [47]: > 100 µM (inactive)
- GI50 [48]: > 100 µM (inactive)
- GI50 [49]: 98.9 µM (inactive)
- GI50 [50]: > 100 µM (inactive)
- GI50 [51]: > 100 µM (inactive)
- GI50 [52]: > 100 µM (inactive)
- GI50 [53]: > 100 µM (inactive)
- GI50 [54]: > 100 µM (inactive)
- GI50 [55]: > 100 µM (inactive)
- GI50 [56]: > 100 µM (inactive)
- GI50 [57]: > 100 µM (inactive)
- GI50 [58]: > 100 µM (inactive)
- GI50 [59]: > 100 µM (inactive)

SMILES: COC(=O)c1ccc([N+](=O)[O-])c(O)c1
- GI50 [1]: > 100 µM (inactive)
- GI50 [2]: > 100 µM (inactive)
- GI50 [3]: > 100 µM (inactive)
- GI50 [4]: > 100 µM (inactive)
- GI50 [5]: > 100 µM (inactive)
- GI50 [6]: > 100 µM (inactive)
- GI50 [7]: > 100 µM (inactive)
- GI50 [8]: > 100 µM (inactive)
- GI50 [9]: > 100 µM (inactive)
- GI50 [10]: > 100 µM (inactive)
- GI50 [11]: > 100 µM (inactive)
- GI50 [12]: > 100 µM (inactive)
- GI50 [13]: > 100 µM (inactive)
- GI50 [14]: > 100 µM (inactive)
- GI50 [15]: > 100 µM (inactive)
- GI50 [16]: > 100 µM (inactive)
- GI50 [17]: > 100 µM (inactive)
- GI50 [18]: > 100 µM (inactive)
- GI50 [19]: > 100 µM (inactive)
- GI50 [20]: > 100 µM
- GI50 [21]: 19.9 µM (inactive)
- GI50 [22]: > 100 µM (inactive)
- GI50 [23]: > 100 µM (inactive)
- GI50 [24]: > 100 µM (inactive)
- GI50 [25]: > 100 µM (inactive)
- GI50 [26]: > 100 µM (inactive)
- GI50 [27]: > 100 µM (inactive)
- GI50 [28]: > 100 µM (inactive)
- GI50 [29]: > 100 µM (inactive)
- GI50 [30]: > 100 µM (inactive)
- GI50 [31]: > 100 µM (inactive)
- GI50 [32]: > 100 µM (inactive)
- GI50 [33]: > 100 µM (inactive)
- GI50 [34]: > 100 µM (inactive)
- GI50 [35]: > 100 µM (inactive)
- GI50 [36]: > 100 µM (inactive)
- GI50 [37]: > 100 µM (inactive)
- GI50 [38]: > 100 µM (inactive)
- GI50 [39]: > 100 µM (inactive)
- GI50 [40]: > 100 µM (inactive)
- GI50 [41]: > 100 µM (inactive)
- GI50 [42]: > 100 µM (inactive)
- GI50 [43]: > 100 µM (inactive)
- GI50 [44]: > 100 µM (inactive)
- GI50 [45]: > 100 µM (inactive)
- GI50 [46]: > 100 µM (inactive)
- GI50 [47]: > 100 µM (inactive)
- GI50 [48]: > 100 µM (inactive)
- GI50 [49]: > 100 µM (inactive)
- GI50 [50]: > 100 µM (inactive)
- GI50 [51]: > 100 µM (inactive)
- GI50 [52]: > 100 µM (inactive)
- GI50 [53]: > 100 µM (inactive)
- GI50 [54]: > 100 µM (inactive)
- GI50 [55]: > 100 µM (inactive)
- GI50 [56]: 8.55 µM (inactive)
- GI50 [57]: > 100 µM (inactive)
- GI50 [58]: > 100 µM (inactive)
- GI50 [59]: > 100 µM (inactive)
